# Activity calls are given as the source filed them. Rule as the data show it, for most assays here: actives have a measured EC50 and inactives only a lower limit.
# Legend:
# [1] = target: T1, Replicative DNA helicase DnaB (Mycobacterium tuberculosis, UniProt P9WMR3); assay: DnaB intein splicing inhibitors, dose response, biochemical, cell-free fluorescence (AID 449749); format: functional
# T1 sequence (P9WMR3 whole entry): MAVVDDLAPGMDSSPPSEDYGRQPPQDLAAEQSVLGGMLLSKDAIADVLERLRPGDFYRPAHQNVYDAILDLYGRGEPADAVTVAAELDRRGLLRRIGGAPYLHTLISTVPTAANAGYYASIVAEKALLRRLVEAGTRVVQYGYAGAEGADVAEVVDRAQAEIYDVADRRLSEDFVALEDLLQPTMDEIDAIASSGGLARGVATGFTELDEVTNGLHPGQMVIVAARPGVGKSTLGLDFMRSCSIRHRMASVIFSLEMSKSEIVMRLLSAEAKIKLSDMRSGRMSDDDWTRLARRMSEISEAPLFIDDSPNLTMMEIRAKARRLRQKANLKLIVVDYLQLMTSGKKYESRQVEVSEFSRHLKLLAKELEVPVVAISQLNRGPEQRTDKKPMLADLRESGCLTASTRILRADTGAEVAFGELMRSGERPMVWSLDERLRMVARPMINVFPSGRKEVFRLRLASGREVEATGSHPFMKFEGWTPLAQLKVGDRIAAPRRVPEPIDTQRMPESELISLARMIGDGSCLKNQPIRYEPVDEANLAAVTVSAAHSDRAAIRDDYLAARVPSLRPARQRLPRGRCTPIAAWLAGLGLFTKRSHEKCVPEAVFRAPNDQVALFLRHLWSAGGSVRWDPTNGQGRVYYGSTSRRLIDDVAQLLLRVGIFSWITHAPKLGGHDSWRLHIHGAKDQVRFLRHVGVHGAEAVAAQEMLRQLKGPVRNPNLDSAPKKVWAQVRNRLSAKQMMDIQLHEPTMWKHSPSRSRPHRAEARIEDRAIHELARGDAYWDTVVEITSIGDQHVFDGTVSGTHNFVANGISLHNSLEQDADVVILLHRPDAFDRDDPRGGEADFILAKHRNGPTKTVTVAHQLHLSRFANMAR
# [2] = target: T2, Protein RecA (Mycobacterium tuberculosis, UniProt P9WHJ3); assay: Fluorescence Cell-Free Homogeneous Dose Retest to Identify Inhibitors of RecA-Intein Splicing Activity. [Related pubchem assays (depositor defined):AID2097, AID2223, AID489010, AID492950]; format: functional
# T2 sequence (P9WHJ3 whole entry): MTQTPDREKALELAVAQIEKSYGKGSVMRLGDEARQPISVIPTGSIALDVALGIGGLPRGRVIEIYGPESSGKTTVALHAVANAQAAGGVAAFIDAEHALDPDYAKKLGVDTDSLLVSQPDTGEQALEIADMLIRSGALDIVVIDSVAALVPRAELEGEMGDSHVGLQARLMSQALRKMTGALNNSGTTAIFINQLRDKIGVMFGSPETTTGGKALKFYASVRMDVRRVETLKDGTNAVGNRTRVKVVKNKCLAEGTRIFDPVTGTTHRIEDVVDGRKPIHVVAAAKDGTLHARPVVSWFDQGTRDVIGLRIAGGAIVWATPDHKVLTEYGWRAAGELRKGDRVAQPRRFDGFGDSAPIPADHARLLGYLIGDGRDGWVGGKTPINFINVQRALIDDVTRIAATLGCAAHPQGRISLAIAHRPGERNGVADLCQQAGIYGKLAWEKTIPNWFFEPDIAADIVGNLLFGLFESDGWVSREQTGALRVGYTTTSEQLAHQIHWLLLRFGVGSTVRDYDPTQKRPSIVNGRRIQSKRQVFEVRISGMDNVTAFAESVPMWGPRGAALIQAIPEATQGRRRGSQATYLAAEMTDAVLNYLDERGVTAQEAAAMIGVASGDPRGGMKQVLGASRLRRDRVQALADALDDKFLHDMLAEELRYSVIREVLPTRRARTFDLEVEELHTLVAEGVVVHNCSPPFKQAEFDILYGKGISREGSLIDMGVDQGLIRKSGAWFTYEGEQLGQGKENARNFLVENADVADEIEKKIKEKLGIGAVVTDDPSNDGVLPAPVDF
# [3] = target: T3, Protein skinhead-1 (Caenorhabditis elegans, UniProt P34707); format: functional
# T3 sequence (P34707 whole entry): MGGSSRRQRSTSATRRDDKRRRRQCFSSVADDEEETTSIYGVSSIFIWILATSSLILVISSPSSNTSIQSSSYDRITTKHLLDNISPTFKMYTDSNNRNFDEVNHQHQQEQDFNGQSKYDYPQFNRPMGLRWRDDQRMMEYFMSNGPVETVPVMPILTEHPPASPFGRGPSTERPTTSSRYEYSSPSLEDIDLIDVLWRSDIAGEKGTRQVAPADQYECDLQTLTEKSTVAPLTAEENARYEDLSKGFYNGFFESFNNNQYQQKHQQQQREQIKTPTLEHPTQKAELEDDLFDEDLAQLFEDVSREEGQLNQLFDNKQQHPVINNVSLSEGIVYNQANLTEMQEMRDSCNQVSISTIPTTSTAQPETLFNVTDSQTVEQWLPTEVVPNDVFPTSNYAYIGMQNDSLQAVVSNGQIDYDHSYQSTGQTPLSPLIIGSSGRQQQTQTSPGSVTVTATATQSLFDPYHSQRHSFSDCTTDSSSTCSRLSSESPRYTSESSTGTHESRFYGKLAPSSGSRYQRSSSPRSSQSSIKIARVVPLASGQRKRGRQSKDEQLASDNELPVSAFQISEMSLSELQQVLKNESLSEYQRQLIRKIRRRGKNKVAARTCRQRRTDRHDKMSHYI
# [4] = target: T4, Heat shock factor protein 1 (Mus musculus, UniProt P38532); assay: decrease of HSF1-responsive luciferase luminescence – cell-based, NIH3T3, dose retest, confirmation (AID 2382); format: functional;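 also: NIH3T3 fibroblasts with HSF1-driven luciferase reporter stressed by proteasome inhibitor MG132; luminescence from HSF1-driven luciferase expression after 8 hours of MG132 stress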
# T4 sequence (P38532 whole entry): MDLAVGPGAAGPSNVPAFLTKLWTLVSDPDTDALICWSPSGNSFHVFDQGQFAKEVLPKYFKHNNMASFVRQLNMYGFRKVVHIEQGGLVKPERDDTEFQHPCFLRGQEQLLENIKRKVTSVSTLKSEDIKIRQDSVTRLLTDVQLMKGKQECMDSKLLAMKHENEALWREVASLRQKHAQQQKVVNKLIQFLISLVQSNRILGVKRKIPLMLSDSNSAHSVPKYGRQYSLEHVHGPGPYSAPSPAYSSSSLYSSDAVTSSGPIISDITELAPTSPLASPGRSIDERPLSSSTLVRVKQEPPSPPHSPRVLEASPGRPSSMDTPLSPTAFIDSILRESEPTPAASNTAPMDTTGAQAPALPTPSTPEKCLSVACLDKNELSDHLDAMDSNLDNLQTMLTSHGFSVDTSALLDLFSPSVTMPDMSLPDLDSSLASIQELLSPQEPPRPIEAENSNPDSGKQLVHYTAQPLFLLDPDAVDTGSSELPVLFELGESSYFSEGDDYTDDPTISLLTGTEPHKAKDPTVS
# [5] = luciferase reporter signal suppression in cells – H4 neuroglioma cells, luminescence, dose response (AID 1990); format: functional, cell-based
# [6] = Luminescence Cell-Based Dose Response HTS to Identify Inhibitors of 5'UTR Stem-Loop Driven Prion Protein mRNA Translation in H4 Neuroglioblastoma Cells. [Related pubchem assays: 1827 (Project Summary), 1813 (Primary HTS)]; format: functional
# [7] = alpha-synuclein stem-loop luciferase translation blockers – H4 neuroglioma cells, luminescence, confirmation (AID 1988); format: functional, cell-based
# [8] = Luminescence Cell-Based Dose Response HTS to Identify Activators of Luciferase Translation or Activity in H4 […] Cells. [Related pubchem assays: 1829 (Project Summary), 1814 (Primary HTS)]; format: functional
# [9] = test system: H4; assay: Luminescence Cell-Based Dose Response HTS to Identify Activators of 5'UTR Stem-Loop Driven Prion Protein mRNA Translation in H4 Neuroglioblastoma Cells. [Related pubchem assays: 1829 (Project Summary), 1814 (Primary HTS)]; format: functional; conditions: Homo sapiens
compound,measurement,setting,value
O=S(=O)(O)Oc1c[nH]c2ccccc12,AC50,[1],1.34 µM (active)
same,EC50,[2],0.155 µM (active)
COCCCn1c(=O)c2ccccc2n(Cc2cccc(C)c2)c1=O,IC50,[3],> 100 µM (inactive)
CCC(=O)CCC(=O)c1ccc2ccccc2c1,EC50,[4],> 195 µM (not active)
CC(C)CCn1c(N)c(S(=O)(=O)c2cccs2)c2nc3ccccc3nc21,EC50,[5],69 µM (active)
same,EC50,[6],> 120 µM (not active)
same,EC50,[7],> 120 µM (not active)
O=c1c([N+](=O)[O-])c(N2CCOCC2)c2ccccc2n1Cc1ccccc1,EC50,[5],19 µM (active)
same,EC50,[6],> 120 µM (not active)
same,EC50,[7],> 120 µM (not active)
Cc1n[nH]c2c1C(c1ccco1)C(C#N)=C(N)O2 (centres undefined),AC50,[1],54.1 µM (active)
same,EC50,[2],4.28 µM (active)
Cc1ccccc1Cn1nnc2c1C(=O)c1ccccc1C2=O,EC50,[5],> 120 µM (not active)
same,EC50,[6],> 120 µM (not active)
same,EC50,[7],> 60 µM (not active)
O=C(OCc1ccccc1)c1ccc2c(c1)-c1ccccc1C2=O,EC50,[8],14.8 µM (active)
same,EC50,[9],11.1 µM (active)
Cc1ccc(Cl)c(N/C=C/C(=O)c2ccccc2)c1,IC50,[3],27.9 µM (active)
Cc1cc(=O)n(-c2ccccc2Cl)[nH]1,AC50,[1],10.7 µM (active)
same,EC50,[2],5.4 µM (active)
COc1cc(C2NC(=O)NC(C)=C2C(=O)OCC2CCCO2)ccc1O (centres undefined),EC50,[4],> 195 µM (not active)
Brc1ccc(-c2nc(-c3ccncc3)no2)o1,IC50,[3],86.1 µM (inactive)
O=C(Nc1cc(-c2ccccc2)n[nH]1)c1ccccc1,IC50,[3],> 100 µM (inactive)
COc1ccc(CCN2C(=O)CS/C2=N\NC(=O)c2ccc(C(C)(C)C)cc2)cc1OC,EC50,[5],22.4 µM (active)
same,EC50,[6],21.1 µM (active)
same,EC50,[7],> 120 µM (not active)
O=C(Nc1ccc(N2CCN(c3ccc(O)cc3)CC2)cc1)Oc1ccccc1,EC50,[4],> 195 µM (not active)
O=C(Nc1ccccc1-c1nc2ccccc2s1)c1cccnc1,EC50,[4],> 195 µM (not active)
CC(Oc1ccc(Cl)cc1)c1ccnn1S(C)(=O)=O (centres undefined),IC50,[3],> 100 µM (inactive)
COc1ccc(CNC(=O)C2CCN(S(=O)(=O)c3ccc4c(c3)C(C)(C)C(=O)N4C)CC2)cc1,EC50,[4],55.2 µM (active)
CC(C)CCNC(=O)c1cnn2c(C(F)(F)F)cc(-c3ccco3)nc12,IC50,[3],> 100 µM (inactive)
O=C(Nc1nc(C(F)(F)F)n[nH]1)c1cccs1,AC50,[1],3.65 µM (active)
same,EC50,[2],9.84 µM (active)
O=S(=O)(Nc1c(O)ccc2ccccc12)c1ccc(F)cc1,AC50,[1],12.2 µM (active)
same,EC50,[2],1.16 µM (active)
O=[N+]([O-])c1ccc(OCc2cnc(Cl)s2)cc1,IC50,[3],50.3 µM (inactive)
COc1ccc(C=O)cc1CN1CCCN(Cc2ccc(Cl)cc2)S1(=O)=O,EC50,[4],> 195 µM (not active)
O=C(c1cnn2c(C(F)(F)F)cc(-c3ccco3)nc12)N1CCCc2ccccc21,IC50,[3],> 100 µM (inactive)
Cn1c(SCC(=O)NCC2CCCO2)ncc(C(=O)Nc2ccc(F)cc2)c1=O (centres undefined),AC50,[1],0.51 µM (active)
same,EC50,[2],0.315 µM (active)
CC(=O)/C(=N\Nc1ccc(Cl)cc1)Sc1nnc(-c2ccccc2)n1-c1ccccc1,EC50,[4],> 195 µM (not active)
N#CC1=C(N)Oc2[nH]nc(-c3cccs3)c2C1c1ccoc1 (centres undefined),AC50,[1],10.4 µM (active)
same,EC50,[2],7.09 µM (active)
C/C(CC(=O)Nc1ccccn1)=N\NC(=O)c1cccc(C)c1,AC50,[1],20.1 µM (active)
same,EC50,[2],7.75 µM (active)
CCCC(=O)Nc1cccc(NC(=O)c2cccc([N+](=O)[O-])c2C)c1,EC50,[4],20.5 µM (active)
N#Cc1cc([N+](=O)[O-])ccc1NC(=O)COC(=O)CCC1CCCCC1,AC50,[1],1.72 µM (active)
same,EC50,[2],3.31 µM (active)
O=S(=O)(c1cc(Cl)ccc1Cl)N1CCC2(CC1)OCCO2,EC50,[4],> 195 µM (not active)
Cc1ccc2cc3cc(C(=O)N4CC(C)CC(C)C4)oc3nc2c1 (centres undefined),IC50,[3],> 100 µM (inactive)
COCCCNC(=O)COc1ccc2oc3c(c2c1)CCCC3,IC50,[3],> 100 µM (inactive)
CSc1ccccc1C(=O)NCCOc1cccc(C)c1,IC50,[3],> 100 µM (inactive)
Cc1ccc(-c2nnc(-c3cccs3)o2)cc1,IC50,[3],35.5 µM (active)
CCOc1ccc(CNS(=O)(=O)c2c(C)nc3scc(C)n3c2=O)cc1OC,EC50,[4],> 195 µM (not active)

# — ChEMBL document CHEMBL1201862, “PubChem BioAssay data set” (2004)
